Measured values taken from ChEMBL document CHEMBL1201862, “PubChem BioAssay data set” (2004).
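Growth conditions: 96-well plates. Treatment: test compound, 48 hours, 5 concentrations. Analysis: linear interpolation between bracketing concentrations; unreached endpoints set to highest concentration. At the GI50, growth is halved.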 Calls of active or inactive are those of the source. No stated cut-off is given here; in the data, active = GI50 up to about 1.1 µM and inactive = higher.

What was measured:
Assay in all cases: NCI tumour cell line growth inhibition, 48 h
SN12C = test system: SN12C
SR = test system: SR
CCRF-CEM = test system: CCRF-CEM
IGROV-1 = test system: IGROV-1
HT-29 = test system: HT-29
HCT-116 = test system: HCT-116
NCI-H522 = test system: NCI-H522
K562 = test system: K562
UACC-62 = test system: UACC-62
HL-60 = test system: HL-60
NCI-H460 = test system: NCI-H460
HCC 2998 = test system: HCC 2998
SF-268 = test system: SF-268
SF-539 = test system: SF-539
DU-145 = test system: DU-145
ACHN = test system: ACHN
SK-MEL-2 = test system: SK-MEL-2
T47D = test system: T47D
OVCAR-5 = test system: OVCAR-5

| SMILES | GI50 (SN12C) | GI50 (SR) | GI50 (CCRF-CEM) | GI50 (IGROV-1) | GI50 (HT-29) | GI50 (HCT-116) | GI50 (NCI-H522) | GI50 (K562) | GI50 (UACC-62) | GI50 (HL-60) | GI50 (NCI-H460) | GI50 (HCC 2998) | GI50 (SF-268) | GI50 (SF-539) | GI50 (DU-145) | GI50 (ACHN) | GI50 (SK-MEL-2) | GI50 (T47D) | GI50 (OVCAR-5) |
| --- | --- | --- | --- | --- | --- | --- | --- | --- | --- | --- | --- | --- | --- | --- | --- | --- | --- | --- | --- |
| CCN1CCC(O)(/C=C/c2ccc(C(C)C)cc2)C(C(=O)/C=C/c2ccc(C(C)C)cc2)C1 (stereo not given) | 2.47 µM (inactive) | 1.38 µM (inactive) | 1.16 µM (inactive) | 2.05 µM (inactive) | 2.24 µM (inactive) | 1.75 µM (inactive) | 2.1 µM (inactive) | 2.72 µM (inactive) | 4.15 µM (inactive) | 2.98 µM (inactive) | 1.53 µM (inactive) | 1.81 µM (inactive) | 1.96 µM (inactive) | 2.29 µM (inactive) | 3.34 µM (inactive) | 1.75 µM (inactive) | 3.08 µM (inactive) | 2.35 µM (inactive) | 4.34 µM (inactive) |
| CCOC(=O)Cc1csc(NC(NC(=O)OCC)(C(=O)OCC)C(F)(F)F)n1 (stereo not given) | > 100 µM (inactive) | > 100 µM (inactive) | > 100 µM (inactive) | > 100 µM (inactive) | > 100 µM (inactive) | > 100 µM (inactive) | 16.9 µM (inactive) | > 100 µM (inactive) | – | > 100 µM (inactive) | > 100 µM (inactive) | > 100 µM (inactive) | > 100 µM (inactive) | > 100 µM (inactive) | > 100 µM (inactive) | > 100 µM (inactive) | > 100 µM (inactive) | > 100 µM (inactive) | > 100 µM (inactive) |
| O=C1c2cc(O)c(O)cc2O[C@H](c2ccc(O)c(O)c2)[C@H]1O | > 100 µM (inactive) | > 100 µM (inactive) | 68.4 µM (inactive) | > 100 µM (inactive) | > 100 µM (inactive) | > 100 µM (inactive) | > 100 µM (inactive) | > 100 µM (inactive) | > 100 µM (inactive) | > 100 µM (inactive) | 49.7 µM (inactive) | > 100 µM (inactive) | > 100 µM (inactive) | > 100 µM (inactive) | > 100 µM (inactive) | > 100 µM (inactive) | > 100 µM (inactive) | > 100 µM (inactive) | > 100 µM (inactive) |
| C/C(CC(O)(C(F)(F)F)C(F)(F)F)=N\NC(N)=O | > 10 µM (inactive) | > 10 µM (inactive) | > 10 µM (inactive) | > 10 µM (inactive) | > 10 µM (inactive) | > 10 µM (inactive) | > 10 µM (inactive) | > 10 µM (inactive) | > 10 µM (inactive) | > 10 µM (inactive) | > 10 µM (inactive) | > 10 µM (inactive) | > 10 µM (inactive) | > 10 µM (inactive) | > 10 µM (inactive) | > 10 µM (inactive) | > 10 µM (inactive) | > 10 µM (inactive) | – |
| N#CC1(C#N)C2C=CC(C3CC=CC32)C1(C#N)C#N (stereo not given) | 10.4 µM (inactive) | 2.29 µM (inactive) | 1.27 µM (inactive) | 9.33 µM (inactive) | 9.71 µM (inactive) | 1.93 µM (inactive) | 1.22 µM (inactive) | 2.4 µM (inactive) | 8.77 µM (inactive) | 1.12 µM (inactive) | > 50 µM (inactive) | > 50 µM (inactive) | 11.2 µM (inactive) | 9.66 µM (inactive) | 9.55 µM (inactive) | 5.12 µM (inactive) | 13.1 µM (inactive) | 3.38 µM (inactive) | 8.39 µM (inactive) |
| CC(C)OP(=O)(OC(C)C)C(C(C)C)N(C)/C(N)=N/C#N (stereo not given) | > 100 µM (inactive) | > 100 µM (inactive) | > 100 µM (inactive) | > 100 µM (inactive) | > 100 µM (inactive) | > 100 µM (inactive) | > 100 µM (inactive) | > 100 µM (inactive) | > 100 µM (inactive) | > 100 µM (inactive) | > 100 µM (inactive) | > 100 µM (inactive) | > 100 µM (inactive) | > 100 µM (inactive) | > 100 µM (inactive) | > 100 µM (inactive) | > 100 µM (inactive) | > 100 µM (inactive) | – |
| Nc1ccn(C2CC(O)C(COP(=O)(S)OC3CC(n4ccc(N)nc4=O)OC3CO)O2)c(=O)n1 (stereo not given) | 52.4 µM (inactive) | > 100 µM (inactive) | > 100 µM (inactive) | > 100 µM (inactive) | > 100 µM (inactive) | > 100 µM (inactive) | > 100 µM (inactive) | – | > 100 µM (inactive) | > 100 µM (inactive) | > 100 µM (inactive) | > 100 µM (inactive) | > 100 µM (inactive) | > 100 µM (inactive) | > 100 µM (inactive) | > 100 µM (inactive) | > 100 µM (inactive) | > 100 µM (inactive) | > 100 µM (inactive) |
| CC(=O)NC1=C(C)C(=O)c2c(nc3n2CC[C@H]3OC(C)=O)C1=O | 1.49 µM (inactive) | 0.361 µM (active) | 0.33 µM (active) | 3.07 µM (inactive) | 2.47 µM (inactive) | 1.3 µM (inactive) | 1.54 µM (inactive) | 1.12 µM (active) | 1.69 µM (inactive) | 0.834 µM (active) | 2.95 µM (inactive) | 2.52 µM (inactive) | 2.87 µM (inactive) | 2.38 µM (inactive) | 15.9 µM (inactive) | 2.78 µM (inactive) | 1.41 µM (inactive) | 0.238 µM (active) | 2.96 µM (inactive) |
| O=C(O)CCC(NC(=O)c1ccc(Nc2nc3ccc(C(F)(F)F)cc3nc2C(=O)O)cc1)C(=O)O (stereo not given) | > 100 µM (inactive) | > 100 µM (inactive) | > 100 µM (inactive) | > 100 µM (inactive) | > 100 µM (inactive) | > 100 µM (inactive) | > 100 µM (inactive) | > 100 µM (inactive) | > 100 µM (inactive) | > 100 µM (inactive) | – | > 100 µM (inactive) | > 100 µM (inactive) | > 100 µM (inactive) | > 100 µM (inactive) | > 100 µM (inactive) | > 100 µM (inactive) | > 100 µM (inactive) | > 100 µM (inactive) |
| CC1=NN(c2nc(N)nc(/C(C#N)=C\C3COc4ccccc4C3=O)n2)C(C)(C)C1 (stereo not given) | – | 17.6 µM (inactive) | 1.9 µM (inactive) | 32.7 µM (inactive) | 26.5 µM (inactive) | 20.6 µM (inactive) | 26.2 µM (inactive) | 32.1 µM (inactive) | – | 0.0404 µM (active) | 26.9 µM (inactive) | 30.4 µM (inactive) | 21.1 µM (inactive) | 26.2 µM (inactive) | 31.6 µM (inactive) | 23.6 µM (inactive) | 14.8 µM (inactive) | 18.2 µM (inactive) | 35.6 µM (inactive) |
| COc1cc2c(cc1OC)C/C(=N\O)c1cc(OC)c(OC)cc1/C=C\2 | 10.4 µM (inactive) | 1.66 µM (inactive) | 13.1 µM (inactive) | 3.37 µM (inactive) | 3.67 µM (inactive) | 3.82 µM (inactive) | 1.01 µM (active) | 4.86 µM (inactive) | 6.81 µM (inactive) | 3.03 µM (inactive) | 3.15 µM (inactive) | 2.95 µM (inactive) | 6.24 µM (inactive) | 4.22 µM (inactive) | 4.49 µM (inactive) | 12.9 µM (inactive) | 3.44 µM (inactive) | 10.6 µM (inactive) | – |
| CCc1[nH]c(=O)nc(N)c1-c1ccc(N2CCCCC2)c([N+](=O)[O-])c1 | > 100 µM (inactive) | > 100 µM (inactive) | > 100 µM (inactive) | > 100 µM (inactive) | > 100 µM (inactive) | > 100 µM (inactive) | > 100 µM (inactive) | > 100 µM (inactive) | > 100 µM (inactive) | 88.7 µM (inactive) | > 100 µM (inactive) | > 100 µM (inactive) | > 100 µM (inactive) | > 100 µM (inactive) | > 100 µM (inactive) | > 100 µM (inactive) | > 100 µM (inactive) | > 100 µM (inactive) | > 100 µM (inactive) |
| C=C1c2nc3ccccc3n2C=C(c2ccc(OC)cc2)N1c1ccc(OCCN2CCOCC2)cc1 | > 61.8 µM (inactive) | 4.41 µM (inactive) | 3.73 µM (inactive) | > 100 µM (inactive) | 6.24 µM (inactive) | 21.9 µM (inactive) | 1.43 µM (inactive) | 7.62 µM (inactive) | 20.4 µM (inactive) | 4.31 µM (inactive) | 3.72 µM (inactive) | 86.3 µM (inactive) | – | > 100 µM (inactive) | > 54.8 µM (inactive) | 46.9 µM (inactive) | 18.5 µM (inactive) | > 100 µM (inactive) | > 100 µM (inactive) |
| C=CCOc1ccc(N)c([N+](=O)[O-])c1 | > 100 µM (inactive) | > 100 µM (inactive) | > 100 µM (inactive) | > 100 µM (inactive) | > 100 µM (inactive) | > 100 µM (inactive) | 63.4 µM (inactive) | > 100 µM (inactive) | > 100 µM (inactive) | > 100 µM (inactive) | – | > 100 µM (inactive) | > 100 µM (inactive) | > 100 µM (inactive) | > 100 µM (inactive) | > 100 µM (inactive) | > 100 µM (inactive) | > 100 µM (inactive) | > 100 µM (inactive) |
| CCCCC1CCCCCCc2[nH]c(/C=C3\N=C(c4ccc[nH]4)C=C3OC)cc21 (stereo not given) | < 0.0185 µM (active) | < 0.01 µM (active) | < 0.01 µM (active) | < 0.0188 µM (active) | < 0.01 µM (active) | < 0.01 µM (active) | < 0.016 µM (active) | < 0.01 µM (active) | < 0.0127 µM (active) | < 0.01 µM (active) | < 0.01 µM (active) | < 0.01 µM (active) | 0.0676 µM (active) | 0.0308 µM (active) | < 0.0109 µM (active) | < 0.0111 µM (active) | < 0.0124 µM (active) | < 0.01 µM (active) | 0.116 µM (active) |
